This note sets out measurements from ChEMBL document CHEMBL3227948, “Preparation and antidiabetic activity of some sulfonylurea derivatives of 3,5-disubstituted pyrazoles” (1979).

A word on the inhibition in vivo: it is the relative decrease from the control value, in per cent.

Molecules are shown by their SMILES.

One test has as its system Mus musculus. As to the kind of experiment: Hypoglycemic activity in alloxan-induced diabetic albino mouse assessed as decrease in blood glucose level at 1 mmol/kg, po administered 6 days after alloxan injection measured after 2 to 4 hrs by automated glucose oxidase method relative to control. The format is functional.
For the compound `CCCN1C(=O)CN(S(=O)(=O)c2ccc(-n3nc(C(=O)O)cc3C)cc2)C1=S`, the inhibition in vivo at 1000 µmol/kg amounted to 1%.
Turning to `N=C(N)NC(=N)NCCc1ccccc1` [PHENFORMIN], the inhibition in vivo at 1000 µmol/kg came to 21%.
`CCCCN1C(=O)CN(S(=O)(=O)c2ccc(-n3nc(C(=O)O)cc3C)cc2)C1=S`: the inhibition in vivo at 1000 µmol/kg was 1%.
The same measure, in the same setting: next, `C=CCN1C(=O)CN(S(=O)(=O)c2ccc(-n3nc(C(=O)O)cc3C)cc2)C1=S`: under 1%; `Cc1cc(C)n(-c2ccc(S(=O)(=O)N3CC(=O)N(c4ccccc4)C3=S)cc2)n1`: 8%; `CCCCN1C(=O)CN(S(=O)(=O)c2ccc(-n3nc(C)cc3C)cc2)C1=S`: 1%.
Still for that read-out and setting: to `CCCN1C(=O)CN(S(=O)(=O)c2ccc(-n3nc(C)cc3C)cc2)C1=S` belongs under 1%; to `Cc1cc(C(=O)O)nn1-c1ccc(S(=O)(=O)N2CC(=O)N(C3CCCCC3)C2=S)cc1`, 1%; to `Cc1cc(C)n(-c2ccc(S(=O)(=O)N3CC(=O)N(C4CCCCC4)C3=S)cc2)n1`, 2%.
As to `CCN1C(=O)CN(S(=O)(=O)c2ccc(-n3nc(C)cc3C)cc2)C1=S`, the inhibition in vivo at 1000 µmol/kg was under 1%.
The same measure, in the same setting: to `Cc1cc(C)n(-c2ccc(S(=O)(=O)N3CC(=O)N(Cc4ccccc4)C3=S)cc2)n1` belongs 1%; to `Cc1cc(C(=O)O)nn1-c1ccc(S(=O)(=O)N2CC(=O)N(Cc3ccccc3)C2=S)cc1`, under 1%; to `CCN1C(=O)CN(S(=O)(=O)c2ccc(-n3nc(C(=O)O)cc3C)cc2)C1=S`, under 1%.
The same measure, in the same setting: next, `C=CCN1C(=O)CN(S(=O)(=O)c2ccc(-n3nc(C)cc3C)cc2)C1=S`: 4%.

For the next test, the system named is Mus musculus. As to the kind of experiment: Hypoglycemic activity in alloxan-induced diabetic albino mouse assessed as decrease in blood glucose level at 0.4 mmol/kg, po administered 6 days after alloxan injection measured after 2 to 4 hrs by automated glucose oxidase method relative to control. In kind it is functional.
Turning to `Cc1cc(C)n(-c2ccc(S(=O)(=O)NC(=S)NC3CCCCC3)cc2)n1`, the inhibition in vivo at 400 µmol/kg is under 2%.
The same measure, in the same setting: next, `C=CCNC(=S)NS(=O)(=O)c1ccc(-n2nc(C)cc2C)cc1`: -1%; `CCCNC(=S)NS(=O)(=O)c1ccc(-n2nc(C(=O)O)cc2C)cc1`: under 1%.
Same read-out and setting: to `Cc1cc(C(=O)O)nn1-c1ccc(S(=O)(=O)NC(=S)Nc2ccccc2)cc1` belongs 0%.
On the same count and under the same terms, to `Cc1cc(C)n(-c2ccc(S(=O)(=O)NC(=O)NCc3ccccc3)cc2)n1` belongs under 1%.
Consider `C=CCNC(=S)NS(=O)(=O)c1ccc(-n2nc(C(=O)O)cc2C)cc1`, for which the inhibition in vivo at 400 µmol/kg is -6%.
The same measure, in the same setting: next, `Cc1cc(C)n(-c2ccc(S(=O)(=O)NC(=S)NCc3ccccc3)cc2)n1`: 0%; `CCCCNC(=S)NS(=O)(=O)c1ccc(-n2nc(C(=O)O)cc2C)cc1`: under 1%; `CCCCNC(=S)NS(=O)(=O)c1ccc(-n2nc(C)cc2C)cc1`: 1%.
The same measure, in the same setting: to `CCCNC(=O)NS(=O)(=O)c1ccc(-n2nc(C(=O)O)cc2C)cc1` belongs 1%; to `CCNC(=S)NS(=O)(=O)c1ccc(-n2nc(C)cc2C)cc1`, 0%; to `CCCCNC(=O)NS(=O)(=O)c1ccc(-n2nc(C)cc2C)cc1`, 2%.
Same read-out and setting: next, `CCNC(=O)NS(=O)(=O)c1ccc(-n2nc(C(=O)O)cc2C)cc1`: 0%; `Cc1cc(C(=O)O)nn1-c1ccc(S(=O)(=O)NC(=S)NC2CCCCC2)cc1`: 1%; `Cc1cc(C)n(-c2ccc(S(=O)(=O)NC(=O)NC3CCCCC3)cc2)n1`: 10%.
Consider `Cc1cc(C(=O)O)nn1-c1ccc(S(=O)(=O)NC(=O)NCc2ccccc2)cc1`, for which the inhibition in vivo at 400 µmol/kg is 0%.
On the same count and under the same terms, to `CCNC(=S)NS(=O)(=O)c1ccc(-n2nc(C(=O)O)cc2C)cc1` belongs -2%.
On the same count and under the same terms, to `Cc1cc(C(=O)O)nn1-c1ccc(S(=O)(=O)NC(=O)NC2CCCCC2)cc1` belongs 1%; to `CCCNC(=S)NS(=O)(=O)c1ccc(-n2nc(C)cc2C)cc1`, under 1%; to `CCCNC(=O)NS(=O)(=O)c1ccc(-n2nc(C)cc2C)cc1`, under 1%.
Still for that read-out and setting: next, `CCCCNC(=O)NS(=O)(=O)c1ccc(-n2nc(C(=O)O)cc2C)cc1`: 2%; `Cc1cc(C)n(-c2ccc(S(=O)(=O)NC(=S)Nc3ccccc3)cc2)n1`: -3%.
On to `Cc1cc(C)n(-c2ccc(S(=O)(=O)NC(=O)NNC(=N)N)cc2)n1`, for which the inhibition in vivo at 400 µmol/kg was determined as 3%.
The same measure, in the same setting: next, `Cc1cc(C(=O)O)nn1-c1ccc(S(=O)(=O)NC(=S)NCc2ccccc2)cc1`: under 2%.
On the same count and under the same terms, to `CCNC(=O)NS(=O)(=O)c1ccc(-n2nc(C)cc2C)cc1` belongs under 1%.

For the next test, the system named is Mus musculus. As to the kind of experiment: Hypoglycemic activity in alloxan-induced diabetic albino mouse assessed as decrease in blood glucose level at 1 mmol/kg, po administered 6 days after alloxan injection measured after 1 to 3 hrs by automated glucose oxidase method relative to control. The format is functional.
Consider `CCN1C(=O)CCN(S(=O)(=O)c2ccc(-n3nc(C(=O)O)cc3C)cc2)C1=S`, for which the inhibition in vivo at 1000 µmol/kg is 1%.
The same measure, in the same setting: next, `N=C(N)NC(=N)NCCc1ccccc1` [PHENFORMIN]: 21%; `CCCN1C(=O)CCN(S(=O)(=O)c2ccc(-n3nc(C(=O)O)cc3C)cc2)C1=S`: under 1%.
The same measure, in the same setting: next, `CCCCN1C(=O)CCN(S(=O)(=O)c2ccc(-n3nc(C(=O)O)cc3C)cc2)C1=S`: 2%; `C=CCN1C(=O)CCN(S(=O)(=O)c2ccc(-n3nc(C(=O)O)cc3C)cc2)C1=S`: 0%; `CCCN1C(=O)CCN(S(=O)(=O)c2ccc(-n3nc(C)cc3C)cc2)C1=S`: 1%.
Still for that read-out and setting: to `Cc1cc(C(=O)O)nn1-c1ccc(S(=O)(=O)N2CCC(=O)N(C3CCCCC3)C2=S)cc1` belongs 2%; to `Cc1cc(C)n(-c2ccc(S(=O)(=O)N3CCC(=O)N(c4ccccc4)C3=S)cc2)n1`, under 1%; to `CCN1C(=O)CCN(S(=O)(=O)c2ccc(-n3nc(C)cc3C)cc2)C1=S`, 4%.
Consider `Cc1cc(C)n(-c2ccc(S(=O)(=O)N3CCC(=O)N(Cc4ccccc4)C3=S)cc2)n1`, for which the inhibition in vivo at 1000 µmol/kg was determined as 18%.
`CCCCN1C(=O)CCN(S(=O)(=O)c2ccc(-n3nc(C)cc3C)cc2)C1=S`: the inhibition in vivo at 1000 µmol/kg came to 1%.
Still for that read-out and setting: to `Cc1cc(C(=O)O)nn1-c1ccc(S(=O)(=O)N2CCC(=O)N(Cc3ccccc3)C2=S)cc1` belongs 16%; to `Cc1cc(C(=O)O)nn1-c1ccc(S(=O)(=O)N2CCC(=O)N(c3ccccc3)C2=S)cc1`, 1%; to `Cc1cc(C)n(-c2ccc(S(=O)(=O)N3CCC(=O)N(C4CCCCC4)C3=S)cc2)n1`, 4%.
